Measured values reported in US20220073525A1, “COMPOSITIONS FOR INHIBITING UBIQUITIN SPECIFIC PROTEASE 1” (FORMA Therapeutics, Inc., priority 2019, published 2022).

The compounds below were run against USP1 (Homo sapiens, UniProt O94782) (assay: Biochemical Assay for USP1 Inhibition (Ub-Rho 110 fluorescence)). Settings: Table 5; 30 min preincubation, Enzyme 0.025 nM, Substrate Ub-Rho 110 25 nM; read-out: IC50 (μm).
Experimental: The assay was performed in a final volume of 6 μL in assay buffer containing 20 mM Tris-HCl pH 8.0, (1 M Tris-HCl, pH 8.0 solution; Corning 46-031-CM), 1 mM GSH (L-glutathione reduced, Sigma-Aldrich, G4251-100G), 0.03% BGG (0.22 μM filtered, Sigma, G7516-25G), and 0.01% Triton X-100 (Sigma, T9284-10L). Nanoliter quantities of 10-point, 3-fold serial dilution in DMSO were pre-dispensed into 1536 assay plates (Corning, #3724BC) for a final test concentration of 25 μM to 1.3 nM, top to lowest dose, respectively. Concentration and incubation times were optimized for the maximal signal-to-background while maintaining initial velocity conditions at a fixed substrate concentration (<<Km). 3 μL of 2× Enzyme was added to assay plates (pre-stamped with compound), preincubated for 30 min, and then treated with 3 μL of 2× Substrate (Ub-Rho 110, UbiQ-126). Final concentrations of Enzyme and Substrate are 0.025 nM and 25 nM, respectively. Plates were read using a kinetic protocol continuously for 11 min on the Envision (Perkin Elmer) or PheraSTAR (BMG), excitation at 485 nm and emission at 535 nm or excitation at 520 nm and emission at 590 nm. For all assay formats, data were reported as percent inhibition compared with control wells based on the following equation: % inh=100*([…]), where FLU=measured Fluorescence, AveLow=average Fluorescence of no enzyme control (n=32), and AveHigh=average Fluorescence of DMSO control (n=32). IC50 values were determined by curve fitting of the standard 4 parameter logistic fitting algorithm included in the Activity Base software package: TDBS XE Designer Model205. Data is fitted using the Levenburg Marquardt algorithm.
In Table 5, absolute stereochemistry has not been determined for some Compounds. Accordingly, assignment ofany Compounds as the “R” or “S” stereoisomer is arbitrary, unless otherwise noted. In some cases, Compounds are labeled with “1st eluting isomer”, “2nd eluting isomer”, etc. based on the purification method used to separate the stereoisomers.

Sequence of USP1 (O94782 whole entry): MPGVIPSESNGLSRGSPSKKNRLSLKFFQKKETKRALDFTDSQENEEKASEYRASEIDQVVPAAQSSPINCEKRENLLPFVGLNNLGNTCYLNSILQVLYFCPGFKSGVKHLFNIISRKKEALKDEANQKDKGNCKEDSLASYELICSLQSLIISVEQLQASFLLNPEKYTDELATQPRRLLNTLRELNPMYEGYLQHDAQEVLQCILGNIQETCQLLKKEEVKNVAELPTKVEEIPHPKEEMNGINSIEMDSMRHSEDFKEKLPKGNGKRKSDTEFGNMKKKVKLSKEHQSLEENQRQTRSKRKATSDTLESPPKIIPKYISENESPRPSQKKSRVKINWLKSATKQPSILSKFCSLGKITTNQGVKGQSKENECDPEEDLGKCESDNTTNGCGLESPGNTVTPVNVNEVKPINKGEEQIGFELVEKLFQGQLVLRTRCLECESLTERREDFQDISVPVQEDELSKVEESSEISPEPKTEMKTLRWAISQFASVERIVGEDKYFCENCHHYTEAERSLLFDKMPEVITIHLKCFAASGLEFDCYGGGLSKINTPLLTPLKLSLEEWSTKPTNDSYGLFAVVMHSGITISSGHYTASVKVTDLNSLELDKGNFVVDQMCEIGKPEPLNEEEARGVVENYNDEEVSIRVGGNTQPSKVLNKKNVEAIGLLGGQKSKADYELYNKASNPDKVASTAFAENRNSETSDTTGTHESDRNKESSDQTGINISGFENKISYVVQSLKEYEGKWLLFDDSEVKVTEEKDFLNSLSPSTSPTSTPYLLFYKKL
Sequence of USP1 (Q8TAF3 whole entry partner): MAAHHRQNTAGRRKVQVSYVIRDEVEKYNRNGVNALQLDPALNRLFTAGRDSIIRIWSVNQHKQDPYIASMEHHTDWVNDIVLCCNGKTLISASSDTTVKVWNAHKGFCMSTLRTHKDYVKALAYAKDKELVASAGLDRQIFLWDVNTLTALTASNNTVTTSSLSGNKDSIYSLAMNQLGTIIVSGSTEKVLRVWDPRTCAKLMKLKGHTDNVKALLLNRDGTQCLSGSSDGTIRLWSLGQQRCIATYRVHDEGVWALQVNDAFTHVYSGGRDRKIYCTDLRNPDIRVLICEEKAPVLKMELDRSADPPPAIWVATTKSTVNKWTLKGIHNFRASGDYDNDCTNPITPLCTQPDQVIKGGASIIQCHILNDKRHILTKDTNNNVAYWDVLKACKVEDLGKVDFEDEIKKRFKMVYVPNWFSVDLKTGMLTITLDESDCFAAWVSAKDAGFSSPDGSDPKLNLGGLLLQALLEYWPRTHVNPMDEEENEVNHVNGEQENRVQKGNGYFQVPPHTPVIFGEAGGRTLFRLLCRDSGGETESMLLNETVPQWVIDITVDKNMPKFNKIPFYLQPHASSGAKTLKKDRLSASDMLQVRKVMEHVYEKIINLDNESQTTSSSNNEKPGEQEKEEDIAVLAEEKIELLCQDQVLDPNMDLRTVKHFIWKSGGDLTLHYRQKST

| SMILES | IC50 |
| --- | --- |
| Cc1nc(-c2cccnc2C(C)C)c2n1CCN(c1ccc(-c3nc(C(F)(F)F)cn3C)cc1)C2C (stereo not drawn) [Compound 85, 3-[3,8-dimethyl-7-{4-[1-methyl-4-(trifluoromethyl)-1H-imidazol-2-yl]phenyl}-5H,6H,7H,8H-imidazo[1,5-a]pyrazin-1-yl]-2-(propan-2-yl)pyridine] | ≤ 1 µM |
| Cc1nc(-c2cccnc2C(C)C)c2n1CCN(c1cccc(C(=O)N3CCC[C@H]3C)c1)C2 [Compound 61, 3-(3-methyl-7-{3-[(2R)-2-methylpyrrolidine-1-carbonyl]phenyl}-5H,6H,7H,8H-imidazo[1,5-a]pyrazin-1-yl)-2-(propan-2-yl)pyridine] | > 25 µM |
| Cc1nc(-c2ccc(N3CCn4c(C)nc(-c5cccnc5C(C)C)c4C3)cc2)cn1C [Compound 45, 3-{7-[4-(1,2-dimethyl-1H-imidazol-4-yl)phenyl]-3-methyl-5H,6H,7H,8H-imidazo[1,5-a]pyrazin-1-yl}-2-(propan-2-yl)pyridine] | ≤ 1 µM |
| Cc1nc(-c2cccnc2C(C)C)c2n1C(C)CN(c1ccc(-c3nc(C(F)(F)F)cn3C)cc1)C2 (stereo not drawn) [Compound 56, 3-(3,5-dimethyl-7-{4-[1-methyl-4-(trifluoromethyl)-1H-imidazol-2-yl]phenyl}-5H,6H,7H,8H-imidazo[1,5-a]pyrazin-1-yl)-2-(propan-2-yl)pyridine] | ≤ 1 µM |
| Cc1nc(-c2cccnc2C(C)C)c2n1CCN(c1ccc(-c3cnn(CC(C)C)c3)cc1)C2 [Compound 69, 3-(3-methyl-7-{4-[1-(2-methylpropyl)-1H-pyrazol-4-yl]phenyl}-5H,6H,7H,8H-imidazo[1,5-a]pyrazin-1-yl)-2-(propan-2-yl)pyridine] | 1 to 10 µM |
| Cc1nc(-c2cccnc2C(C)C)c2n1CCN(c1ccc(-c3nc(CO)co3)cc1)C2 [Compound 64, [2-(4-{3-methyl-1-[2-(propan-2-yl)pyridin-3-yl]-5H,6H,7H,8H-imidazo[1,5-a]pyrazin-7-yl}phenyl)-1,3-oxazol-4-yl]methanol] | 10 to 25 µM |
| CNC(=O)c1ccc(N2CCn3c(C)nc(-c4cccnc4C(C)C)c3C2)cc1 [Compound 26, N-methyl-4-{3-methyl-1-[2-(propan-2-yl)pyridin-3-yl]-5H,6H,7H,8H-imidazo[1,5-a]pyrazin-7-yl}benzamide] | > 25 µM |
| Cc1nc(-c2cccnc2C(C)C)c2n1CCN(c1ccc(C(=O)N3CCC[C@@H]3C)cc1)C2 [Compound 55, 3-(3-methyl-7-{4-[(2S)-2-methylpyrrolidine-1-carbonyl]phenyl}-5H,6H,7H,8H-imidazo[1,5-a]pyrazin-1-yl)-2-(propan-2-yl)pyridine] | 1 to 10 µM |
| Cc1nc(-c2cccnc2C(C)C)c2n1CCN(c1ccc(-c3cncn3C)cc1)C2 [Compound 28, 3-{3-methyl-7-[4-(1-methyl-1H-imidazol-5-yl)phenyl]-5H,6H,7H,8H-imidazo[1,5-a]pyrazin-1-yl}-2-(propan-2-yl)pyridine] | > 25 µM |
| Cc1nc(-c2cccnc2C(C)C)c2n1CCN(c1ccc(C3(O)COC3)cc1)C2 [Compound 46, 3-(4-{3-methyl-1-[2-(propan-2-yl)pyridin-3-yl]-5H,6H,7H,8H-imidazo[1,5-a]pyrazin-7-yl}phenyl)oxetan-3-ol] | > 25 µM |
| COc1ccc(N2CCn3c(C)nc(-c4cccnc4C(C)C)c3C2)cc1 [Compound 17, 3-[7-(4-methoxyphenyl)-3-methyl-5H,6H,7H,8H-imidazo[1,5-a]pyrazin-1-yl]-2-(propan-2-yl)pyridine] | > 25 µM |
| Cc1nc(-c2cccnc2C(C)C)c2n1CCN(c1ccc(-c3ncccn3)cc1)C2 [Compound 41, 2-(4-{3-methyl-1-[2-(propan-2-yl)pyridin-3-yl]-5H,6H,7H,8H-imidazo[1,5-a]pyrazin-7-yl}phenyl)pyrimidine] | 1 to 10 µM |
| Cc1nc(-c2cccnc2C(C)C)c2n1CCN(c1ccc(-c3ncn(C)n3)cc1)C2 [Compound 66, 3-{3-methyl-7-[4-(1-methyl-1H-1,2,4-triazol-3-yl)phenyl]-5H,6H,7H,8H-imidazo[1,5-a]pyrazin-1-yl}-2-(propan-2-yl)pyridine] | 10 to 25 µM |
| Cc1nc(-c2cccnc2C(C)C)c2n1CCN(c1ccc(-c3nc(C(F)(F)F)cn3C3COC3)cc1)C2 [Compound 25, 3-(3-methyl-7-{4-[1-(oxetan-3-yl)-4-(trifluoromethyl)-1H-imidazol-2-yl]phenyl}-5H,6H,7H,8H-imidazo[1,5-a]pyrazin-1-yl)-2-(propan-2-yl)pyridine] | ≤ 1 µM |
| Cc1cc(Cl)n(-c2ccc(N3CCn4c(C)nc(-c5cccnc5OC(F)F)c4C3)cc2)n1 [Compound 82, 3-{7-[4-(5-chloro-3-methyl-1H-pyrazol-1-yl)phenyl]-3-methyl-5H,6H,7H,8H-imidazo[1,5-a]pyrazin-1-yl}-2-(difluoromethoxy)pyridine] | ≤ 1 µM |
| Cc1nc(-c2cccnc2C(C)C)c2n1CCN(c1ccc(C(=O)N3CCC[C@H]3C)cc1)C2 [Compound 54-1, 3-(3-methyl-7-{4-[(2R)-2-methylpyrrolidine-1-carbonyl]phenyl}-5H,6H,7H,8H-imidazo[1,5-a]pyrazin-1-yl)-2-(propan-2-yl)pyridine] | 10 to 25 µM |
| Cc1nc(-c2cccnc2C(C)C)c2n1CCN(c1ccc(C(=O)N(C)CC(F)(F)F)cc1)C2 [Compound 58, N-methyl-4-{3-methyl-1-[2-(propan-2-yl)pyridin-3-yl]-5H,6H,7H,8H-imidazo[1,5-a]pyrazin-7-yl}-N-(2,2,2-trifluoroethyl)benzamide] | 1 to 10 µM |
| Cc1nc(-c2cccnc2C(C)C)c2n1CCN(c1ccc(F)cc1)C2 [Compound 5, 3-[7-(4-fluorophenyl)-3-methyl-5H,6H,7H,8H-imidazo[1,5-a]pyrazin-1-yl]-2-(propan-2-yl)pyridine] | > 25 µM |
| Cc1nc(-c2cccnc2C(C)C)c2n1CCN(c1ccc(-n3nccn3)cc1)C2 [Compound 67, 3-{3-methyl-7-[4-(2H-1,2,3-triazol-2-yl)phenyl]-5H,6H,7H,8H-imidazo[1,5-a]pyrazin-1-yl}-2-(propan-2-yl)pyridine] | 1 to 10 µM |
| COCCn1cc(-c2ccc(N3CCn4c(C)nc(-c5cccnc5C(C)C)c4C3)cc2)cn1 [Compound 70, 3-(7-{4-[1-(2-methoxyethyl)-1H-pyrazol-4-yl]phenyl}-3-methyl-5H,6H,7H,8H-imidazo[1,5-a]pyrazin-1-yl)-2-(propan-2-yl)pyridine] | 10 to 25 µM |
| Cc1nc(-c2cccnc2C(C)C)c2n1CCN(c1cccc(C(=O)N(C)C3CC3)c1)C2 [Compound 60, N-cyclopropyl-N-methyl-3-{3-methyl-1-[2-(propan-2-yl)pyridin-3-yl]-5H,6H,7H,8H-imidazo[1,5-a]pyrazin-7-yl}benzamide] | > 25 µM |
| Cc1nc(-c2cccnc2C(C)C)c2n1CCN(c1cc(N3CCCCC3)ncn1)C2 [Compound 19, 4-{3-methyl-1-[2-(propan-2-yl)pyridin-3-yl]-5H,6H,7H,8H-imidazo[1,5-a]pyrazin-7-yl}-6-(piperidin-1-yl)pyrimidine] | 10 to 25 µM |
| Cc1nc(-c2cccnc2C(C)C)c2n1CCN(c1ccc(-c3nc(C(F)(F)F)cn3C3CC3)cc1)C2 [Compound 76, 3-(7-{4-[1-cyclopropyl-4-(trifluoromethyl)-1H-imidazol-2-yl]phenyl}-3-methyl-5H,6H,7H,8H-imidazo[1,5-a]pyrazin-1-yl)-2-(propan-2-yl)pyridine] | ≤ 1 µM |
| Cc1nc(-c2cccnc2C(C)C)c2n1CCN(c1ccc(C3CNC(=O)C3)cc1)C2 (stereo not drawn) [Compound 34, 4-(4-{3-methyl-1-[2-(propan-2-yl)pyridin-3-yl]-5H,6H,7H,8H-imidazo[1,5-a]pyrazin-7-yl}phenyl)pyrrolidin-2-one] | > 25 µM |
| Cc1nc(-c2cccnc2OC(F)F)c2n1CCN(c1ccc(-c3nc(C(F)(F)F)cn3C)cc1)C2C (single isomer, unassigned) [Compound 52-1, 2-(difluoromethoxy)-3-[-3,8-dimethyl-7-{4-[1-methyl-4-(trifluoromethyl)-1H-imidazol-2-yl]phenyl}-5H,6H,7H,8H-imidazo[1,5-a]pyrazin-1-yl]pyridine] | ≤ 1 µM |
| Cc1nc(-c2cccnc2C(C)C)c2n1CCN(c1ccc(-n3ccnc3)cc1)C2 [Compound 47, 3-{7-[4-(1H-imidazol-1-yl)phenyl]-3-methyl-5H,6H,7H,8H-imidazo[1,5-a]pyrazin-1-yl}-2-(propan-2-yl)pyridine] | > 25 µM |

Same assay, conditions: Table 6, additional compounds; 30 min preincubation, Enzyme 0.025 nM, Substrate Ub-Rho 110 25 nM; read-out: IC50

| SMILES | IC50 |
| --- | --- |
| Cc1nc(-c2cccnc2C(C)C)c2n1CCN(C(=O)c1ccc(-c3ccnn3C(C)C)nc1)C2 [Compound C-6, 3-(3-methyl-7-{6-[1-(propan-2-yl)-1H-pyrazol-5-yl]pyridine-3-carbonyl}-5H,6H,7H,8H-imidazo[1,5-a]pyrazin-1-yl)-2-(propan-2-yl)pyridine] | > 25 µM |
